Measurements as given in publication PMC11053489 (Viruses, 2024).
pEC50: −log10 of the molar value. Structures can show the parent of a compound that is named as a salt. Where two headings read alike, the source gives them in different places.

What was measured:
[1] = system: SARS-CoV-2 (hCoV-19/USA-WA1/2020) in Vero CCL-81 cells; assay: microbe, parasite or virus in culture; type: cell-based; settings: for anti-SARS-CoV-2 activity (in words), concentrations up to 100 μM: Vero CCL-81 cells
[2] = system: SARS-CoV-2 (hCoV-19/USA-WA1/2020) in Caco-2 cells; assay: microbe, parasite or virus in culture; settings: Severe acute respiratory syndrome coronavirus 2, Caco-2, 72 h; for pEC50: read-out: Caco-2 SARS-CoV-2 EC50; for EC90: read-out: Caco-2 SARS-CoV-2 EC90
[3] = system: SARS-CoV-2 (hCoV-19/USA-WA1/2020) in Caco-2 cells
[4] = system: SARS-CoV-2 (hCoV-19/USA-WA1/2020) in Calu-3 cells; assay: microbe, parasite or virus in culture; type: cell-based; settings: for pEC50 / EC90: Severe acute respiratory syndrome coronavirus 2, Calu-3, MOI 0.01, 72 h, 2% FBS; for pEC50: read-out: Calu-3 SARS-CoV-2 EC50; for EC90: read-out: Calu-3 SARS-CoV-2 EC90; for anti-SARS-CoV-2 activity in Calu-3 cells (in words): tested up to 100 μM
[5] = human, in vivo
[6] = cited from earlier work; for Fun: Table 3, 1 – fraction bound reported in the literature, ref column Refs of Table 3
[7] = MTS cytotoxicity assay, Vero CCL-81 cells; settings: African green monkey
[8] = MTS cytotoxicity assay, Caco-2 cells; settings: human
[9] = MTS cytotoxicity assay, CEM cells; settings: human
[10] = MTS cytotoxicity assay, PBM cells; settings: human
[11] = MTS cytotoxicity assay, Calu-3 cells; settings: human
[12] = MTS cytotoxicity assay, Huh-7 cells; settings: human
[13] = Peak plasma concentration; settings: human, in vivo
in vitro [14] = settings: African green monkey
Huh-7 cells = settings: human, 4 days
in vitro [15] = settings: human
CCRF-CEM cells = settings: human, 4 days
in vitro [16] = settings: human; remark: listed apart in the source
in vitro [17] = settings: human, Caco-2
[18] = Severe acute respiratory syndrome coronavirus 2, Table 1 drugs, MOI 0.1, 48 h, 2% FBS, read-out: Vero CCL-81 SARS-CoV-2 EC50
[19] = Severe acute respiratory syndrome coronavirus 2, Table 1 drugs, MOI 0.1, 48 h, 2% FBS, read-out: Vero CCL-81 SARS-CoV-2 EC90
[20] = Severe acute respiratory syndrome coronavirus 2, Table 3, drugs tested only in Vero CCL-81, MOI 0.1, 48 h, read-out: Vero CCL-81 Cells EC50
[21] = Severe acute respiratory syndrome coronavirus 2, Table 3, drugs tested only in Vero CCL-81, MOI 0.1, 48 h, read-out: Vero CCL-81 Cells EC90
[22] = NAs and nucleoside-base precursors, evaluated up to 20 μM

CC(C)C(=O)OC[C@H]1O[C@@H](n2ccc(NO)nc2=O)[C@H](O)[C@@H]1O [Molnupiravir (NHC), Molnupiravir]
pEC50 [1, 18]: 6.22 | EC90 [1, 19]: 1.4 µM | pEC50 [2]: 5.77 | EC90 [2]: 12.2 µM | Caco-2 Unbound Cmax/EC50 ([3]; Caco-2): 5.3 | pEC50 [4]: 6.40 | EC90 [4]: 1.8 µM | Cmax (μM) {unbound} [5]: 7.10 µM | Fun (unbound fraction of drug in plasma) ([6]; plasma): 1

CC(C)OC(=O)C(C)(C)Oc1ccc(C(=O)c2ccc(Cl)cc2)cc1 [Fenofibrate]
CC50 at 3 days [7]: > 100 µM | CC50 at 3 days [8]: > 100 µM | CC50 at 4 days ([9]; CEM CC50, 4 days): 28.5 µM | anti-SARS-CoV-2 activity in Caco-2 cells (in words) ([3]; tested up to 100 μM): inactive | anti-SARS-CoV-2 activity in Calu-3 cells (in words) [4]: inactive | CC50 at 5 days [10]: 38.9 µM | CC50 at 3 days [11]: ≥ 100 µM | CC50 at 4 days [12]: > 100 µM | Cmax (μM) {unbound} [13]: 0.28 µM

CC(C)C(=O)OC[C@H]1O[C@@](C#N)(c2ccc3c(N)ncnn23)[C@H](O)[C@@H]1O [Obeldesivir]
Caco-2 Unbound Cmax/EC50 ([3]; Caco-2): 72 | Cmax (μM) {unbound} [5]: 5.79 µM

NC12CC3CC(CC(C3)C1)C2 [Amantadine]
CC50 at 3 days [7]: > 100 µM | Cmax (μM) {unbound} [13]: 0.002 µM

CN(Cc1cc(Br)cc(Br)c1N)C1CCCCC1 [Bromhexine]
pEC50 [1, 20]: 6.10 | EC90 [1, 21]: 6.2 µM | CC50 at 3 days (in vitro [14]): > 100 µM | Cmax (μM) {unbound} [5]: 0.005 µM

NC(N)=Nc1nc(CSCCC(N)=NS(N)(=O)=O)cs1 [Famotidine]
pEC50 [1, 20]: 3.80 | CC50 at 3 days [7]: > 100 µM | Fun [6]: 0.8 | Cmax (μM) {unbound} [13]: 0.16 µM

CC(C)OC(=O)[C@H](C)N[P@](=O)(CO[C@H](C)Cn1cnc2c(N)ncnc21)Oc1ccccc1 [tenofovir alafenamide]
antiviral activity in Vero CCL-81 cells (in words) [1]: lack of antiviral activity

CC(C)OC(=O)[C@H](C)N[P@](=O)(OC[C@H]1O[C@@H](n2ccc(=O)[nH]c2=O)[C@](C)(F)[C@@H]1O)Oc1ccccc1 [sofosbuvir]
antiviral activity in Vero CCL-81 cells (in words) [1]: lack of antiviral activity

CN(C)CCC(c1ccc(Cl)cc1)c1ccccn1 (stereo not shown) [Chlorpheniramine maleate]
pEC50 [1, 20]: 4.51 | EC90 [1, 21]: 104 µM | CC50 at 3 days [7]: > 100 µM | Fun [6]: 0.28 | Cmax (μM) {unbound} [13]: 0.008 µM

CC(C)C(=O)OCC(=O)[C@@]12O[C@H](C3CCCCC3)O[C@@H]1C[C@H]1[C@@H]3CCC4=CC(=O)C=C[C@]4(C)[C@H]3[C@@H](O)C[C@@]12C [Ciclesonide]
pEC50 [1, 20]: 5.39 | EC90 [1, 21]: 7.8 µM | CC50 at 3 days (in vitro [14]): 33.9 µM | Cmax (μM) {unbound} [5]: 0.0000/1 μM

Cc1cccc(/C=N/Nc2cc(N3CCOCC3)nc(OCCc3ccccn3)n2)c1 [Apilimod mesylate]
Huh7 CC50 {Unbound} (Huh-7 cells): 54.8 µM | pEC50 [1, 18]: 6.15 | EC90 [1, 19]: 7.4 µM | pEC50 [2]: 4.07 | EC90 [2]: > 100 µM | CC50 at 3 days (in vitro [14]): > 100 µM | Caco-2 Unbound Cmax/EC50 ([3]; Caco-2): 0.0005 | CC50 at 5 days (in vitro [15]): > 100 µM | pEC50 [4]: < 4.00 | anti-SARS-CoV-2 activity in Calu-3 cells (in words) [4]: inactive | Cmax (μM) {unbound} [5]: 0.043 µM | CEM CC50 {Unbound} (CCRF-CEM cells): 62.2 µM | CC50 at 3 days (in vitro [16]): > 100 µM | CC50 at 3 days (in vitro [17]): > 100 µM

Nc1ccn([C@@H]2CS[C@H](CO)O2)c(=O)n1 [lamivudine]
antiviral activity in Vero CCL-81 cells (in words) [1, 22]: lack of antiviral activity

O=C1O[C@H]([C@@H](O)CO)C(O)=C1O [L-ascorbic acid]
anti-SARS-CoV-2 activity (in words), concentrations up to 100 μM [1]: inactive

Nc1nc(=O)n([C@@H]2CS[C@H](CO)O2)cc1F [emtricitabine]
antiviral activity in Vero CCL-81 cells (in words) [1, 22]: lack of antiviral activity

CC(C)OC(=O)OCOP(=O)(CO[C@H](C)Cn1cnc2c(N)ncnc21)OCOC(=O)OC(C)C [tenofovir disoproxil fumarate]
antiviral activity in Vero CCL-81 cells (in words) [1, 22]: lack of antiviral activity

O=C(O)Cc1ccccc1Nc1c(Cl)cccc1Cl [Diclofenac sodium]
pEC50 [1, 20]: 4.01 | EC90 [1, 21]: 141 µM | CC50 at 3 days [7]: > 100 µM | Cmax (μM) {unbound} [13]: 0.012 µM

CC(C)(O)c1ccccc1CC[C@@H](SCC1(CC(=O)O)CC1)c1cccc(/C=C/c2ccc3ccc(Cl)cc3n2)c1 [Montelukast sodium]
Cmax (μM) {unbound} [13]: 0.009 µM

CC(C)/N=c1\cc2n(-c3ccc(Cl)cc3)c3ccccc3nc-2cc1Nc1ccc(Cl)cc1 [Clofazimine]
pEC50 [1, 20]: 6.30 | EC90 [1, 21]: 3 µM | CC50 at 3 days (in vitro [14]): 34.3 µM | Fun [6]: 0.001 | Cmax (μM) {unbound} [13]: 0.002 µM

COC[C@H]1C[C@@H](c2ncc(-c3ccc4c(c3)COc3cc5c(ccc6nc([C@@H]7CC[C@H](C)N7C(=O)[C@@H](NC(=O)OC)C(C)C)[nH]c65)cc3-4)[nH]2)N(C(=O)[C@H](NC(=O)OC)c2ccccc2)C1 [Velpatasvir]
pEC50 [1, 20]: 4.72 | EC90 [1, 21]: 79.6 µM | CC50 at 3 days (in vitro [14]): > 100 µM | Cmax (μM) {unbound} [5]: 0.001 µM

COc1ccc2[nH]cc(CCNC(C)=O)c2c1 [Melatonin]
pEC50 [1, 20]: 4.66 | CC50 at 3 days [7]: > 100 µM | Fun [6]: 0.22 | Cmax (μM) {unbound} [13]: 0.005 µM

CC(=O)Oc1ccccc1C(=O)Nc1ncc([N+](=O)[O-])s1 [Nitazoxanide]
pEC50 [1, 18]: 5.85 | EC90 [1, 19]: 3.9 µM | pEC50 [2]: 5.36 | EC90 [2]: 11.1 µM | CC50 at 3 days (in vitro [14]): 8.7 µM | Caco-2 Unbound Cmax/EC50 ([3]; Caco-2): 0.078 | CC50 at 5 days (in vitro [15]): 8.3 µM | pEC50 [4]: 4.64 | EC90 [4]: 42.9 µM | Cmax (μM) {unbound} [5]: 0.014 µM | Fun (unbound fraction of drug in plasma) ([6]; Table 1, ref column Refs of Table 1): 0.01 | CC50 at 3 days (in vitro [16]): 49.8 µM | CC50 at 3 days (in vitro [17]): 7.2 µM

O=C(O)COCCN1CCN(C(c2ccccc2)c2ccc(Cl)cc2)CC1 (stereo not shown) [cetirizine]
anti-SARS-CoV-2 activity (in words), concentrations up to 100 μM [1]: inactive

NC(=O)c1ncn([C@@H]2O[C@H](CO)[C@@H](O)[C@H]2O)n1 [ribavirin]
antiviral activity in Vero CCL-81 cells (in words) [1, 22]: lack of antiviral activity

CCCCCc1cc(O)c2c(c1)OC(C)(C)c1ccc(C)cc1-2 [Cannabinol]
pEC50 ([1]; Severe acute respiratory syndrome coronavirus 2, 48 h, read-out: Vero CCL-81 Cells EC50): 5.57 | EC90 ([1]; Severe acute respiratory syndrome coronavirus 2, 48 h, read-out: Vero CCL-81 Cells EC90): 8.7 µM | CC50 (in vitro [14]): 37.3 µM | Fun [6]: 0.1

Cc1ccc(-c2cc(C(F)(F)F)nn2-c2ccc(S(N)(=O)=O)cc2)cc1 [Celecoxib]
pEC50 [1, 18]: 5.14 | EC90 [1, 19]: 14.6 µM | CC50 at 3 days [7]: 50 µM | pEC50 [2]: 6.15 | EC90 [2]: 1.2 µM | CC50 at 3 days [8]: 59.1 µM | CC50 at 4 days [9]: 77.1 µM | Caco-2 Unbound Cmax/EC50 ([3]; Cmax × Fun/EC50): 0.08 | pEC50 [4]: 5.52 | EC90 [4]: 6.3 µM | CC50 at 5 days [10]: > 100 µM | CC50 at 3 days [11]: 70.5 µM | CC50 at 4 days [12]: 31.1 µM | Cmax (μM) {unbound} [13]: 0.056 µM

CN1CC[C@H](c2c(O)cc(O)c3c(=O)cc(-c4ccccc4Cl)oc23)[C@H](O)C1 [Flavopiridol]
pEC50 [1, 20]: 7.00 | EC90 [1, 21]: 1.1 µM | CC50 at 3 days [7]: 0.031 µM | Fun [6]: 0.05 | Cmax (μM) {unbound} [13]: 0.096 µM

c1cc(CN2CCCNCCNCCCNCC2)ccc1CN1CCCNCCNCCCNCC1 [plerixafor]
anti-SARS-CoV-2 activity (in words), concentrations up to 100 μM [1]: inactive

COC(=O)N[C@H](C(=O)N1CCC[C@H]1c1nc(-c2ccc3c(c2)O[C@@H](c2ccccc2)n2c-3cc3cc(-c4c[nH]c([C@@H]5CCCN5C(=O)[C@@H](NC(=O)OC)C(C)C)n4)ccc32)c[nH]1)C(C)C [Elbasivir]
pEC50 [1, 20]: 5.47 | EC90 [1, 21]: 12.5 µM | CC50 at 3 days (in vitro [14]): > 100 µM | Cmax (μM) {unbound} [5]: 0.003 µM

C[C@@H]1C[C@H]2[C@@H]3CCC4=CC(=O)C=C[C@]4(C)[C@@]3(F)[C@@H](O)C[C@]2(C)[C@@]1(O)C(=O)CO [dexamethasone]
anti-SARS-CoV-2 activity (in words), concentrations up to 100 μM [1]: inactive

C[C@H]1c2cccc(O)c2C(=O)C2=C(O)[C@]3(O)C(=O)C(C(N)=O)=C(O)[C@@H](N(C)C)[C@@H]3[C@@H](O)[C@@H]21 [Doxycycline]
pEC50 [1, 20]: 4.16 | EC90 [1, 21]: 102 µM | CC50 at 3 days [7]: ≥ 100 µM | Fun [6]: 0.15 | Cmax (μM) {unbound} [13]: 0.55 µM

CC#CC(=O)N1CCC[C@H]1c1nc(-c2ccc(C(=O)Nc3ccccn3)cc2)c2c(N)nccn12 [Acalabrutinib]
pEC50 [1, 20]: 4.95 | EC90 [1, 21]: 70.9 µM | CC50 at 3 days (in vitro [14]): > 100 µM | Cmax (μM) {unbound} [5]: 0.017 µM
